The results in this text go back to ChEMBL document CHEMBL5050838 (2021).

Series [1] has as its system JIMT-1. In words: Induction of apoptosis in human JIMT-1 cells assessed as change in cleaved PARP levels and measured by Western blot analysis. The class given is functional, cell-based. The settings on record: dose 100-5000 nM.
The subject of series [2] is JIMT-1. In words: Antitumor activity against human JIMT-1 cells xenografted female nude mouse assessed as reduction in tumor weight at 25 mg/kg, po administered for every two days for 23 days. The class given is functional, organism-based. The settings on record: time 23.0 day. Background: In xenograft studies the graft and the host belong to different species.
The subject of series [3] is JIMT-1. Nature of the series: Inhibition of TACC3 expressed in human JIMT-1 cells at 1 uM and measured after 6 hrs by cellular thermal shift assay relative to control. Format: cell-based.
The nature of series [4]: Apparent permeability of the compound across apical to basolateral side in human Caco-2 cells. Format: ADME, cell-based. On the technique in general: Caco-2 cells form a polarised layer with tight junctions and transporters.
Series [5] is described as follows: Kinetic solubility in sodium phosphate buffer at pH 7.4 and at 25 degreeC after 2 hrs. The class given is physicochemical. The conditions noted are these: read-out: Kinetic_solubility.
Series [6] in a line: Plasma protein binding in human assessed as unbound fraction. The class given is ADME, cell-free.
The subject of series [7] is JIMT-1. Nature of the series: Antitumor activity against human JIMT-1 cells xenografted female nude mouse assessed as reduction in tumor growth at 2 mg/kg, po administered for every two days for 30 days. Format: functional, organism-based. The settings on record: time 30.0 day.
Series [8] relates to JIMT-1. Nature of the series: Antitumor activity against human JIMT-1 cells xenografted female nude mouse assessed as reduction in tumor growth at 25 mg/kg, po administered for every two days for 23 days. The settings on record: time 23.0 day. The class given is functional, organism-based.
The test system of the next series is MDA-MB-436. Nature of the series: Antiproliferative activity against human MDA-MB-436 cells after 72 hrs by Cell Titer Glo assay. Format: functional, cell-based. The settings on record: MDA-MB-436, 72 h. A general note: ATP-based viability assays read luminescence as a measure of living cells.
The nature of series [9]: Intrinsic clearance in mouse liver microsomes. The settings on record: read-out: CLH. The class given is ADME, Microsome.
Series [10] can be described thus: Plasma protein binding in human. Format: ADME, cell-free.
Series [11] deals with JIMT-1. Nature of the series: Anticlonogenic activity against human JIMT-1 cells assessed as reduction number of cell colonies at 100 to 1000 nM measured after 12 days by crystal violet reagent based colony formation assay. Format: functional. The settings on record: dose 100-1000 nM, time 12.0 day.
The nature of series [12]: Half-life in mouse liver microsomes. The class given is ADME, Microsome.
Series [13] has as its system JIMT-1. In words: Induction of apoptosis in human JIMT-1 cells assessed as change in cleaved caspase-3 levels and measured by Western blot analysis. The conditions noted are these: dose 100-5000 nM. Format: functional, cell-based.
The test system of the next series is BT-474. Nature of the series: Antiproliferative activity against T-DM1-resistant human BT-474 cells after 72 hrs by Cell Titer Glo assay. Format: functional, cell-based. The settings on record: BT-474, 72 h.
Series [14] has as its system JIMT-1. Nature of the series: Induction of DNA damage in human JIMT-1 cells assessed as change in p-H2AX levels and measured by Western blot analysis. The settings on record: dose 100-5000 nM. The class given is functional, cell-based.
The test system of another series is MCF-12A. In words: Antiproliferative activity against human MCF-12A cells after 72 hrs by Cell Titer Glo assay. Format: functional, cell-based.
A short description of series [15]: Lipophilicity, log D of compound at pH 7.4 in octanol/phosphate buffer. Format: physicochemical.
Series [16] is described as follows: Toxicity in human JIMT-1 cells xenografted female nude mouse assessed as effect on body weight at 2 mg/kg, po administered for every two days for 30 days. The conditions noted are these: in vivo, 720 h, time 30 day. Format: organism-based.
A short description of series [17]: Half-life in human liver microsomes. The class given is ADME, Microsome.
A short description of series [18]: Toxicity in human JIMT-1 cells xenografted female nude mouse assessed as effect on body weight at 5 mg/kg, po administered for every two days for 30 days. Format: organism-based. The conditions noted are these: in vivo, 720 h, time 30 day.
Series [19] can be described thus: Toxicity in human JIMT-1 cells xenografted female nude mouse assessed as effect on body weight at 2 mg/kg, iv administered for every two days for 30 days. The class given is organism-based. The conditions noted are these: in vivo, 720 h, time 30 day.
The test system of series [20] is JIMT-1. Nature of the series: Antitumor activity against human JIMT-1 cells xenografted female nude mouse assessed as reduction in tumor growth at 5 mg/kg, po administered for every two days for 30 days. Format: functional, organism-based. The conditions noted are these: time 30.0 day.
The nature of series [21]: Intrinsic clearance in human liver microsomes. The conditions noted are these: read-out: CLH. The class given is ADME, Microsome.
A further series has as its system MDA-MB-157. Nature of the series: Antiproliferative activity against human MDA-MB-157 cells after 72 hrs by Cell Titer Glo assay. The conditions noted are these: MDA-MB-157, 72 h. Format: functional, cell-based.
The nature of series [22]: Toxicity in human JIMT-1 cells xenografted female nude mouse assessed as effect on body weight at 25 mg/kg, po administered for every two days for 23 days. Format: organism-based. The conditions noted are these: in vivo, 552 h, time 23 day.
A short description of series [23]: Apparent permeability of the compound across basolateral to apical side in human Caco-2 cells. The class given is ADME, cell-based.
The subject of series [24] is JIMT-1. Nature of the series: Antitumor activity against human JIMT-1 cells xenografted female nude mouse assessed as reduction in tumor growth at 2 mg/kg, iv administered for every two days for 30 days. The class given is functional, organism-based. The conditions noted are these: time 30.0 day.
The subject of series [25] is JIMT-1. In words: Induction of mitotic arrest in human JIMT-1 cells assessed as change in p-histone H3 levels and measured by Western blot analysis. Format: functional, cell-based. The settings on record: dose 100-5000 nM.
For series [26], the system named is JIMT-1. In words: Induction of apoptosis in human JIMT-1 cells at high concentration assessed as change in cleaved caspase-3 levels and measured by Western blot analysis. The class given is functional, cell-based. The conditions noted are these: dose 100-5000 nM.
The subject of series [27] is JIMT-1. In words: Induction of mitotic arrest in human JIMT-1 cells at high concentration assessed as change in p-histone H3 levels and measured by Western blot analysis. The class given is functional, cell-based. The conditions noted are these: dose 100-5000 nM.
Series [28] has as its system JIMT-1. Nature of the series: Induction of apoptosis in human JIMT-1 cells at high concentration assessed as change in cleaved PARP levels and measured by Western blot analysis. The conditions noted are these: dose 100-5000 nM. Format: functional, cell-based.
The subject of series [29] is JIMT-1. Nature of the series: Antiproliferative activity against human JIMT-1 cells after 72 hrs by Cell Titer Glo assay. The class given is functional, cell-based. The settings on record: JIMT-1, 72 h.
Series [30] deals with JIMT-1. In words: Induction of DNA damage in human JIMT-1 cells at high concentration assessed as change in p-H2AX levels and measured by Western blot analysis. The settings on record: dose 100-5000 nM. The class given is functional, cell-based.

The source made the active and inactive calls.

Take `COc1ccc(-c2cc(Nc3ccnc(N4CCOCC4)n3)on2)cc1`: the Activity result with JIMT-1 [1] was “Dose-Dependent Effect”; in the series with JIMT-1 [11] it was “Dose-Dependent Effect”; in the series with JIMT-1 [13], “Dose-Dependent Effect”; with JIMT-1 [14], “Dose-Dependent Effect”; in series [16], “Non-Toxic”; in [18], “Non-Toxic”. Moreover, the values for the Activity result (in series [19]; in [22]; in the series with JIMT-1 [25]) were “Non-Toxic”, “Non-Toxic” and “Dose-Dependent Effect”, respectively. Moreover, the outcome in the series on JIMT-1 [2], in the series with JIMT-1 [3], in the series with JIMT-1 [7], in the series with JIMT-1 [8], in the series on JIMT-1 [20] and in the series on JIMT-1 [24] was Active. For the same compound, the Papp A→B in [4] was determined as 191 nm/s. For the same compound, in series [5], the solubility kinetic at 2 h was under 1 µM. Moreover, the PPB is given as 1.13% in series [6] and 98.87% in series [10]. In addition, the IC50 was 0.146 µM in the series on MDA-MB-436, 0.37 µM in the series with BT-474, over 10 µM in the series on MCF-12A and 0.33 µM in the series with MDA-MB-157. Also, the microsomal CLint in series [9] amounted to 329 µL/min/mg; in series [21], 118 µL/min/mg. Besides, the half-life in [12] came out at 5 min; in [17] it was 12 min. Moreover, in [15], the logD amounted to 2.31. Besides, the basolateral-to-apical permeability (Papp B→A) in [23] was 241 nm/s.
`CCN(Cc1ccncc1)Cc1c(O)ccc2c(-c3cc4ccccc4oc3=O)cc(=O)oc12`: the result in the series on JIMT-1 [26], in the series with JIMT-1 [27], in the series on JIMT-1 [28] and in the series with JIMT-1 [30] was Active. Besides, the IC50 with MDA-MB-436 was 1.3 µM; with BT-474, 0.99 µM; in the series with MCF-12A it was over 10 µM; in the series on JIMT-1 [29] it was 1.15 µM; in the series on MDA-MB-157, 1.82 µM.
For the compound `CC(C)CNc1ccnc(NCc2csc(-c3ccccc3)n2)n1`, the result in the series with JIMT-1 [26], in the series on JIMT-1 [27], in the series with JIMT-1 [28] and in the series on JIMT-1 [30] was Active. In addition, the half-inhibitory concentration (IC50) in the series on MDA-MB-436 amounted to 4.14 µM; in the series with BT-474, 3.73 µM; with MCF-12A it was 3.46 µM; with JIMT-1 [29], 1.8 µM; in the series on MDA-MB-157, 1.82 µM.

By Papp A→B is commonly meant how fast a substance crosses the layer from the apical side. By IC50 is commonly meant the midpoint of a concentration-inhibition curve. In general, half-life refers to the time needed for the level to fall by half in the phase considered. Read a low half-life as rapid decline. For orientation: logD means lipophilicity at a set pH, counting ionised and neutral species. A higher logD goes with higher lipophilicity. As a reminder, the Papp B→A is how fast a substance crosses the layer from the basolateral side.
